Measurements as given in patent US20060069132A1, “Azolecarboxamide herbicides” (priority 2004, published 2006).

Assays:
barnyardgrass [1] = test: Test A pre-/postemergence herbicide test; assay type: in vivo, Echinochloa crus-galli
In short: (§1)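 Plants are held in greenhouse about ten days after treatment, then compared with untreated controls and scored 0 (no effect) to 100 (complete control). Preemergence dosing is a directed soil spray on sown sandy loam; postemergence dosing is spray to runoff at 2–10 cm height.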

large crabgrass [2] = test: Test A pre-/postemergence herbicide test; assay type: in vivo, Digitaria sanguinalis
In short: as §1

giant foxtail [3] = test: Test A pre-/postemergence herbicide test; assay type: in vivo, Setaria faberi
In short: as §1

morningglory [4] = test: Test A pre-/postemergence herbicide test; assay type: in vivo, Ipomoea spp.
In short: as §1

redroot pigweed = test: Test A pre-/postemergence herbicide test; assay type: in vivo, Amaranthus retroflexus
In short: as §1

velvetleaf [5] = test: Test A pre-/postemergence herbicide test; assay type: in vivo, Abutilon theophrasti
In short: as §1

barnyardgrass [6] = test: Test B pre-/postemergence herbicide test; assay type: in vivo, Echinochloa crus-galli
In short: (§2)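 Response was scored visually 13 to 15 days after treatment against untreated greenhouse controls, 0 meaning no effect and 100 complete control. Formulations (solvent mixture plus surfactant) went onto soil after planting, onto foliage of 1- to 4-leaf plants, and onto 2-leaf plants in a flooded paddy set including rice and barnyardgrass.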

Surinam grass = test: Test B pre-/postemergence herbicide test; assay type: in vivo, Urochloa decumbens
In short: as §2

cocklebur = test: Test B pre-/postemergence herbicide test; assay type: in vivo, Xanthium strumarium
In short: as §2

corn = test: Test B pre-/postemergence herbicide test; assay type: in vivo, Zea mays
In short: as §2

large crabgrass [7] = test: Test B pre-/postemergence herbicide test; assay type: in vivo, Digitaria sanguinalis
In short: as §2

giant foxtail [8] = test: Test B pre-/postemergence herbicide test; assay type: in vivo, Setaria faberi
In short: as §2

lambsquarters = test: Test B pre-/postemergence herbicide test; assay type: in vivo, Chenopodium album
In short: as §2

morningglory [9] = test: Test B pre-/postemergence herbicide test; assay type: in vivo, Ipomoea coccinea
In short: as §2

pigweed = test: Test B pre-/postemergence herbicide test; assay type: in vivo, Amaranthus retroflexus
In short: as §2

velvetleaf [10] = test: Test B pre-/postemergence herbicide test; assay type: in vivo, Abutilon theophrasti
In short: as §2

blackgrass = test: Test B postemergence herbicide test; assay type: in vivo, Alopecurus myosuroides; conditions: Postemergence, scale 0 (no effect) to 100 (complete control)
In short: (§3)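 Visual control ratings, 0–100 versus untreated controls, taken after 13 to 15 days in the greenhouse. Blackgrass received a postemergence spray at the 1- to 4-leaf stage (2–18 cm); ducksalad, umbrella sedge and barnyardgrass were flooded-paddy treated at 2 leaves.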

wheat = test: Test B postemergence herbicide test; assay type: in vivo, Triticum aestivum; conditions: Postemergence, 500 g ai/ha; visual rating after 13 to 15 days, scale 0 (no effect) to 100 (complete control)
In short: (§4)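 Formulated test chemicals went onto postemergence plants measuring 2 to 18 cm, at one to four leaves. For the paddy assay, species had reached two leaves. Scoring took place 13–15 days later by eye, relative to untreated plants, using 0 for no effect up to 100 for full control.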

wild oat = test: Test B postemergence herbicide test; assay type: in vivo, Avena fatua; conditions: Postemergence, scale 0 (no effect) to 100 (complete control)
In short: as §4

rice = test: Test B flooded paddy test; assay type: in vivo, Oryza sativa; conditions: 1000 g ai/ha, visual rating, scale 0 to 100 (0 no effect, 100 complete control), 13 to 15 days
In short: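 Postemergence plants were sprayed with formulated test chemicals at 2 to 18 cm height (1- to 4-leaf stage); paddy species were grown to the 2-leaf stage. After 13 to 15 days in a greenhouse, injury was rated visually against untreated controls on a 0–100 scale (0 = no effect, 100 = complete control).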

[11] = system: small flower umbrella sedge; test: Test B flooded paddy test; assay type: in vivo, Cyperus difformis; conditions: 1000 g ai/ha, visual rating, scale 0 to 100 (0 no effect, 100 complete control), 13 to 15 days
In short: as §3

ducksalad = test: Test B flooded paddy test; assay type: in vivo, Heteranthera limosa; conditions: 1000 g ai/ha, visual rating, scale 0 to 100 (0 no effect, 100 complete control), 13 to 15 days
In short: as §3

barnyardgrass [12] = test: Test B flooded paddy test; assay type: in vivo, Echinochloa crus-galli; conditions: 1000 g ai/ha, visual rating, scale 0 to 100 (0 no effect, 100 complete control), 13 to 15 days
In short: as §3

[13] = Postemergence, 250 g ai/ha, 0 to 100 scale, 0 no effect, 100 complete control
[14] = Postemergence, 1000 g ai/ha, 0 to 100 scale, 0 no effect, 100 complete control
[15] = Preemergence, 1000 g ai/ha, visual rating, 0 to 100 scale (0 no effect, 100 complete control)
[16] = preemergence, 250 g ai/ha, visual injury, 0 to 100 scale (0 no effect, 100 complete control)
[17] = Postemergence, 125 g ai/ha, scale 0 (no effect) to 100 (complete control)
[18] = Postemergence, 500 g ai/ha, visual rating after 13 to 15 days, scale 0 (no effect) to 100 (complete control)
[19] = Preemergence, 500 g ai/ha, scale 0 to 100
[20] = preemergence, 125 g ai/ha, 0 to 100 scale, 0 is no effect, 100 is complete control
[21] = 500 g ai/ha, visual rating after 13 to 15 days

CCN(CC)C(=O)c1cccc(NC(=O)c2cc(C(C)(C)C)nn2CC(F)(F)F)c1 [Compound 32] was tested, and the “Barnyardgrass plant response rating” value (barnyardgrass [1]; [13]) was 0, the “Plant response rating, Barnyardgrass” value (barnyardgrass [1]; [14]) was 0 and the “Barnyardgrass plant response rating” value (barnyardgrass [1]; [15]) was 0. For the same molecule, the “Barnyardgrass plant response rating” value (barnyardgrass [1]; [16]) was 0, the “Crabgrass, Large plant response rating” value (large crabgrass [2]; [13]) was 0 and the “Plant response rating, Crabgrass, Large” value (large crabgrass [2]; [14]) was 0. The “Crabgrass, Large plant response rating” value (large crabgrass [2]; [15]) was 0, the “Crabgrass, Large plant response rating” value (large crabgrass [2]; [16]) was 0 and the “Foxtail, Giant plant response rating” value (giant foxtail [3]; [13]) was 0. For the same molecule, the “Plant response rating, Foxtail, Giant” value (giant foxtail [3]; [14]) was 0, the “Foxtail, Giant plant response rating” value (giant foxtail [3]; [15]) was 0 and the “Foxtail, Giant plant response rating” value (giant foxtail [3]; [16]) was 0. The “Morningglory plant response rating” value (morningglory [4]; [13]) was 0, the “Plant response rating, Morningglory” value (morningglory [4]; [14]) was 0 and the “Morningglory plant response rating” value (morningglory [4]; [15]) was 0. The “Morningglory plant response rating” value (morningglory [4]; [16]) was 0, the “Pigweed plant response rating” value (redroot pigweed; [13]) was 0 and the “Plant response rating, Pigweed” value (redroot pigweed; [14]) was 0. For the same molecule, the “Pigweed plant response rating” value (redroot pigweed; [15]) was 0, the “Pigweed plant response rating” value (redroot pigweed; [16]) was 0 and the “Velvetleaf plant response rating” value (velvetleaf [5]; [13]) was 0. The “Plant response rating, Velvetleaf” value (velvetleaf [5]; [14]) was 0, the “Velvetleaf plant response rating” value (velvetleaf [5]; [15]) was 0 and the “Velvetleaf plant response rating” value (velvetleaf [5]; [16]) was 0. The “Barnyardgrass plant response rating” value (barnyardgrass [6]; [17]) was 0, the “Plant response rating, Barnyardgrass” value (barnyardgrass [6]; [18]) was 10 and the “Barnyardgrass plant response rating” value (barnyardgrass [6]; [19]) was 60. For the same molecule, the “Plant response rating, Surinam Grass” value (Surinam grass; [18]) was 10, the “Surinam Grass plant response rating” value (Surinam grass; [19]) was 30 and the “Plant response rating, Surinam Grass” value (Surinam grass; [20]) was 0. For the same molecule, the “Cocklebur plant response rating” value (cocklebur; [17]) was 10, the “Plant response rating, Cocklebur” value (cocklebur; [18]) was 20 and the “Cocklebur plant response rating” value (cocklebur; [19]) was 0. For the same molecule, the “Corn plant response rating” value (corn; [17]) was 10, the “Plant response rating, Corn” value (corn; [18]) was 10 and the “Corn plant response rating” value (corn; [19]) was 0. The “Crabgrass, Large plant response rating” value (large crabgrass [7]; [17]) was 0, the “Plant response rating, Crabgrass, Large” value (large crabgrass [7]; [18]) was 10 and the “Crabgrass, Large plant response rating” value (large crabgrass [7]; [19]) was 60. The “Foxtail, Giant plant response rating” value (giant foxtail [8]; [17]) was 0, the “Plant response rating, Foxtail, Giant” value (giant foxtail [8]; [18]) was 10 and the “Foxtail, Giant plant response rating” value (giant foxtail [8]; [19]) was 10. For the same molecule, the “Plant response rating, Foxtail, Giant” value (giant foxtail [8]; [20]) was 0, the “Lambsquarters plant response rating” value (lambsquarters; [17]) was 70 and the “Plant response rating, Lambsquarters” value (lambsquarters; [18]) was 90. The “Lambsquarters plant response rating” value (lambsquarters; [19]) was 100, the “Plant response rating, Lambsquarters” value (lambsquarters; [20]) was 100 and the “Morningglory plant response rating” value (morningglory [9]; [17]) was 0. For the same molecule, the “Plant response rating, Morningglory” value (morningglory [9]; [18]) was 0, the “Morningglory plant response rating” value (morningglory [9]; [19]) was 60 and the “Plant response rating, Morningglory” value (morningglory [9]; [20]) was 50. The “Plant response rating, Pigweed” value (pigweed; [18]) was 50, the “Pigweed plant response rating” value (pigweed; [19]) was 70 and the “Plant response rating, Pigweed” value (pigweed; [20]) was 0. The “Plant response rating, Velvetleaf” value (velvetleaf [10]; [18]) was 30, the “Velvetleaf plant response rating” value (velvetleaf [10]; [19]) was 70 and the “Plant response rating, Velvetleaf” value (velvetleaf [10]; [20]) was 0. For the same molecule, the “Blackgrass plant response rating” value (blackgrass; 125 g ai/ha) was 0, the “Plant response rating, Blackgrass” value (blackgrass; [21]) was 0 and the “Plant response rating, Wheat” value (wheat) was 10. The “Oat, Wild plant response rating” value (wild oat; 125 g ai/ha) was 10, the “Plant response rating, Oat, Wild” value (wild oat; [21]) was 20 and the “Rice plant response rating” value (rice) was 0. The “Sedge, Umbrella plant response rating” value [11] was 20, the “Ducksalad plant response rating” value (ducksalad) was 0 and the “Barnyardgrass plant response rating” value (barnyardgrass [12]) was 0.
